Values joined by “and” are separate entries in the source; they are usually repeats but may differ in a detail not shown here. Identical values can stand only once.
Key:
[1] = system: MCF-7 (ER-positive breast adenocarcinoma) cells; set-up: method as in PMID 36903304; settings: previous study ref 48; cited from earlier work
[2] = system: MCF-7 (ER-positive breast adenocarcinoma) cells; test: MTT assay, antiproliferative activity on MCF-7 cells; format: cell-based, human; settings: for IC50: MTT, 72 h; for SI MCF-7 (selectivity index): SI = IC50 on Neuro-2a/IC50 on MCF-7
Protocol: (§1) The antiproliferative activity of the novel indolyl-methylidene-substituted phenylsulfonylhydrazones (3a–j) and the bis-indole hydrazine derivative (4) was evaluated against two breast cancer cell lines: MCF-7 and MDA-MB-231. The MCF-7 cell line, derived from human breast adenocarcinoma, expresses estrogen receptor alpha (ER-α). In contrast, the MDA-MB-231 cell line represents triple-negative breast cancer (TNBC) and lacks expression of estrogen, progesterone, and HER2 receptors. Antiproliferative activity was expressed as IC50, the concentration (in μM) required to inhibit 50% of cell growth, and ligand efficiency (LE), calculated as LE = −log(IC50)/number of heavy atoms. To assess the selectivity index (SI = IC50 on Neuro-2a/IC50 on breast cancer cell line), the compounds were also tested on Neuro-2a cells, a mouse neuroblastoma cell line derived from brain tissue.
(§2) The in vitro antineoplastic activity of the synthesized compounds was tested against human breast cancer cell lines, comprising the triple-negative MDA-MB-231 and the […] MCF-7. Neuroblastoma mouse cells Neuro-2a were used as a non-breast cancer cell line reference. All cell lines were obtained from the German Collection of Microorganisms and Cell Cultures (DSMZ, Braunschweig, Germany) and cultivated and maintained in accordance with the supplier’s protocols. The cells were cultured in RPMI 1640 growth medium (Gibco, Thermo Fisher Scientific, Waltham, MA, USA), supplemented with 10% fetal bovine serum (FBS; Gibco, Thermo Fisher Scientific, Waltham, MA, USA) and 5% L-glutamine (Gibco, Thermo Fisher Scientific, Waltham, MA, USA), and incubated at standard conditions of 37 °C in a humidified environment with 5% CO2.
(§3) The cytostatic activity of the tested compounds was evaluated using the Mosmann MTT assay—a well-established colorimetric method for assessing cell viability. This assay measures mitochondrial enzyme activity by reducing the yellow dye MTT (3-(4,5-dimethylthiazol-2-yl)-2,5-diphenyltetrazolium bromide) into violet formazan crystals. The exponentially growing cells were harvested and seeded into 96-well plates at a density of 1.5 × 10^5 cells per well in 100 μL of medium and incubated for 24 h. The cell cultures were then treated with various concentrations (200–6.25 μM) of the tested compounds and incubated for 72 h. Cell viability was quantified as a percentage (%) relative to the untreated control, which was set at 100% viability.
(§4) The experimental data were analyzed using nonlinear regression in GraphPad Prism® software, version 9.0. Semi-logarithmic dose–response curves were generated, and the half-maximal inhibitory concentrations (IC50) of the tested compounds were calculated for each tumor cell line.

[3] = system: MDA-MB-231 (triple-negative breast cancer) cells; test: MTT assay, antiproliferative activity on MDA-MB-231 cells; format: cell-based, human; settings: for IC50: MTT, 72 h; for SI MDA-MB-231 (selectivity index): SI = IC50 on Neuro-2a/IC50 on MDA-MB-231
Protocol: as §1, §2, §3, §4

[4] = system: Neuro-2a (mouse neuroblastoma) cells; test: MTT assay on Neuro-2a reference cells; format: cell-based; settings: N2a, 72 h
Protocol: as §1, §2, §3, §4

| Molecule | IC50 ([2]; Homo sapiens, MCF7, 72 h) | IC50 ([3]; Homo sapiens, MDA-MB-231, 72 h) | IC50 [4] | selectivity index MCF-7, earlier series of arylsulfonylhydrazones [1] | SI MCF-7 (selectivity index) [2] | IC50 [3] | SI MDA-MB-231 (selectivity index) [3] | IC50 [2] |
| --- | --- | --- | --- | --- | --- | --- | --- | --- |
| N′-[(1-acetyl-1H-indol-3-yl)methylidene]benzenesulfonohydrazide [1c] | – | – | – | up to 40 | – | – | – | – |
| COc1ccc(S(=O)(=O)N/N=C/c2c[nH]c3ccc(Br)cc23)cc1 [3c, N′-[(E)-(5-Bromo-1H-indol-3-yl)methylidene]-4-methoxybenzene-1-sulfonohydrazide] | 5.2 ± 1 µM | 17.7 ± 2.3 µM | 18.6 ± 3.9 µM | – | 3.577 | – | 1.051 | – |
| Cc1cc(C)c(S(=O)(=O)N/N=C/c2c[nH]c3ccc(Br)cc23)c(C)c1 [3d, N′-[(E)-(5-Bromo-1H-indol-3-yl)methylidene]-2,4,6-trimethylbenzene-1-sulfonohydrazide] | 4.2 ± 0.7 µM | 19.9 ± 1.6 µM | 21 ± 2.1 µM | – | 5.000 | – | 1.055 | – |
| CC(=O)n1cc(C=NNS(=O)(=O)c2ccc(C)cc2)c2ccccc21 [1d, N′-[(1-acetyl-1H-indol-3-yl)methylidene]-4-methylbenzenesulfonohydrazide] | – | – | – | ≤ 46 | – | – | – | – |
| CC(=O)n1cc(/C=N/NS(=O)(=O)c2c(C)cc(C)cc2C)c2ccccc21 [3b, N′-[(E)-(1-Acetyl-1H-indol-3-yl)methylidene]-2,4,6-trimethylbenzene-1-sulfonohydrazide] | 4 ± 0.9 µM | 16.3 ± 4.1 µM | 83.9 ± 9.4 µM | – | 20.975 | – | 5.147 | – |
| COc1ccc(S(=O)(=O)N/N=C/c2cn(C(C)=O)c3ccccc23)cc1 [3a, N′-[(E)-(1-Acetyl-1H-indol-3-yl)methylidene]-4-methoxybenzene-1-sulfonohydrazide] | 4.3 ± 1.3 µM | 20.1 ± 3.4 µM | 58 ± 8.2 µM | – | 13.5 and 13.488 | – | 2.886 | – |
| N.N.[Cl][Pt][Cl] [Cisplatin, reference compound] | – | – | – | – | – | 63.4 ± 7.2 µM | – | 50.3 ± 6.5 µM |

Further lines, with some results ahead:

| IC50 ([2]; Homo sapiens, MCF7, 72 h) | IC50 ([3]; Homo sapiens, MDA-MB-231, 72 h) | IC50 [4] | Molecule | selectivity index MCF-7, earlier series of arylsulfonylhydrazones [1] | SI MCF-7 (selectivity index) [2] | IC50 [3] | SI MDA-MB-231 (selectivity index) [3] | IC50 [2] |
| --- | --- | --- | --- | --- | --- | --- | --- | --- |
| 12.4 ± 3.2 µM | < 10 µM | 15.9 ± 1.6 µM | Cc1ccc(S(=O)(=O)N/N=C/c2c[nH]c3ccc(Cl)cc23)c(C)c1 [3i, N′-[(E)-(5-Chloro-1H-indol-3-yl)methylidene]-2,4-dimethylbenzene-1-sulfonohydrazide] | – | 1.282 | 9.5 ± 1.5 µM | 1.674 | – |
| 29.6 ± 5.1 µM | 18.7 ± 2.7 µM | 34.8 ± 5.7 µM | Cc1ccc(S(=O)(=O)N/N=C/c2c[nH]c3ccc(Br)cc23)cc1 [3e, N′-[(E)-(5-Bromo-1H-indol-3-yl)methylidene]-4-methylbenzene-1-sulfonohydrazide] | – | 1.176 | – | 1.861 | – |
| 11.5 ± 2.3 µM | 13.3 ± 2.2 µM | 35.5 ± 5.3 µM | Cc1ccc(S(=O)(=O)N/N=C/c2c[nH]c3ccc(Cl)cc23)cc1C [3j, N′-[(E)-(5-Chloro-1H-indol-3-yl)methylidene]-3,4-dimethylbenzene-1-sulfonohydrazide] | – | 3.087 | – | 2.669 | – |
| 15.2 ± 2.1 µM | 18.1 ± 2.5 µM | 24 ± 1.9 µM | Cc1cc(C)c(S(=O)(=O)N/N=C/c2c[nH]c3ccc(Cl)cc23)c(C)c1 [3h, N′-[(E)-(5-Chloro-1H-indol-3-yl)methylidene]-2,4,6-trimethylbenzene-1-sulfonohydrazide] | – | 1.579 | – | 1.326 | – |
| < 6 µM | – | 10.9 ± 1.8 µM | O=S(=O)(N/N=C/c1c[nH]c2ccc(Br)cc12)c1ccccc1 [3f, N′-[(E)-(5-Bromo-1H-indol-3-yl)methylidene]benzene-1-sulfonohydrazide] | – | 1.847 | – | 2.319 | 5.9 ± 1.4 µM |
| 12.7 ± 2.8 µM | 14.7 ± 1.8 µM | 26.2 ± 3.5 µM | COc1ccc(S(=O)(=O)N/N=C/c2c[nH]c3ccc(Cl)cc23)cc1 [3g, N′-[(E)-(5-Chloro-1H-indol-3-yl)methylidene]-4-methoxybenzene-1-sulfonohydrazide] | – | 2.063 | – | 1.782 | – |
| 21.4 ± 4.9 µM | 66 ± 7.4 µM | 53.7 ± 3.1 µM | Clc1ccc2[nH]cc(/C=N/N=C/c3c[nH]c4ccc(Cl)cc34)c2c1 [compound 4, 3,3′-[(1E,2E)-hydrazine-1,2-diylidenedi(E)methylylidene]bis(5-chloro-1H-indole)] | – | 2.509 | – | 0.814 | – |

Source: PMC12389196, “Novel Indole-Based Sulfonylhydrazones as Potential Anti-Breast Cancer Agents: Synthesis, In Vitro Evaluation, ADME, and QSAR Studies” (Pharmaceuticals, 2025)
